Test results from publication PMC10609081, “In Vivo Trafficking of the Anticancer Drug Tris(8-Quinolinolato) Gallium (III) (KP46) by Gallium-68/67 PET/SPECT Imaging” (Molecules, 2023).
Where two headings read alike, the source gives them in different places.

Columns and labels:
[1] = Distribution/partition coefficients (logD, logP), shake flask with gamma counting; assay type: physicochemical; conditions: octanol/water, tracer level, mean ± SD
Description: Tracer-level [^68Ga]KP46 and [^68Ga]Ga-acetate solutions (5–20 µL, 0.3–0.5 MBq) were added to a pre-equilibrated mixture (500 µL/500 µL) of octanol/water (for logP measurement) or octanol/PBS (for logD7.4 measurement). Samples were vortexed for two minutes in a Multi Vortex Mixer V-32 (Grant Bio). From each layer, a sample of 200 µL was taken and its radioactivity measured using a gamma counter.

[2] = ICP-MS analysis of 69Ga in tissues after oral bulk dose; assay type: in vivo, mice; conditions: bulk (group D), 4 h
Description: Oral [^68/67Ga]KP46: The protocol for oral administration experiments reported here was devised on the basis of pilot experiments described in Supplementary Materials (Figure S12). For short-term (up to 4 h) studies with ^68Ga, awake (nonanaesthetised, to avoid suppressive effects of anaesthesia on digestive tract activity) mice that had been fasted for up to 14 h were given [^68Ga]KP46 (5–13 MBq) (group C, “tracer”, n = 3) or [^68Ga]KP46 and KP46 (5–8.5 MBq) (group D, “bulk”, n = 3) by oral gavage. The dose given orally to group D animals, prepared as described above, was 0.4 μmol in 400 μL, molar activity ca. 25 MBq/μmol. […] After separation of layers, a sample of 400 µL from each layer was transferred to fresh Eppendorf tubes and analysed with a gamma counter. Stomach content (72–77 mg), small intestine content (35–88 mg), and large intestine content (86–100 mg) samples from each mouse were analysed similarly by adding them directly to Eppendorf tubes containing a pre-equilibrated mixture of octanol (500 µL) and water (500 µL) before vortexing and centrifuging at 10,000 rpm for 10 min at 4 °C. From each layer, 430 µL was transferred to fresh Eppendorf tubes and analysed with a gamma counter; the solid residues were also counted. […]
expressed as mean ± SD (n = 3). […]

[3] = parameters: method as in PMID 16938349, PMID 21305117; conditions: bulk drug, spectrophotometric; cited from earlier work
[4] = parameters: method as in PMID 8687115; conditions: healthy mice, 2 weeks daily oral doses; cited from earlier work
[5] = SPECT imaging and ex vivo biodistribution 24 h and 48 h after oral [67Ga]KP46, tracer (group E) and bulk (group F); assay type: in vivo, mice; conditions: n = 4
Description: The tracer-level samples for oral administration were prepared in the same manner but with 20 μL of KP46-free DMSO in place of the KP46 solution in DMSO.
All animal experiments were performed in accordance with the Animals (Scientific Procedures) Act, 1986, with protocols approved by the Animal Welfare and Ethical Review Body for King’s College London under project and personal licences approved by the UK Home Office. Tumour xenograft studies were performed on female NSG mice or female athymic nude mice after injecting them subcutaneously in the right shoulder with 2.5 × 10^6 A375 cells in 100 µL of PBS. All in vivo studies were conducted between 14 and 24 days after inoculation, with tumour volumes between 100 mm^3 and 580 mm^3 (see Supplementary Materials, Figure S11).
For long-term (up to 48 h) studies, a similar protocol was followed, but SPECT imaging using ^67Ga was repeated at intervals up to 48 h instead of PET imaging up to only 4 h postadministration. Athymic nude nu/nu mice bearing A375 xenografts were fasted for 7–14 h and divided in two groups: E (n = 4) and F (n = 4). Awake (nonanaesthetised) mice were orally administered with [^67Ga]KP46 (2–11 MBq, “tracer”, group E) or with [^67Ga]KP46 and KP46 (1–11 MBq, “bulk”, group F, given 0.4 μmol KP46 with molar activity ca. 15 MBq/μmol) and fasted for three hours. Mice in both groups were then anaesthetised and SPECT/CT scanned (see scanning protocol below) for one hour. Mice were then allowed to recover and feed. At 24 h postadministration, mice were reanaesthetised and rescanned, then group E mice were culled while still anaesthetised, and tissues were harvested for ex vivo gamma counting.
PET/CT images were acquired with a nanoScan® PET/CT (Mediso Medical Imaging Systems, Budapest, Hungary) scanner operating in list mode using a 400–600 keV energy window and a coincidence window of 1:3. CT scans were acquired for anatomical reference and attenuation correction (55 keV X-ray, exposure time 1000 ms, and 360 projections and pitch 1). PET projection data were reconstructed using the Tera-tomo® software package provided with the scanner —a Monte Carlo-based fully 3D iterative algorithm with four iterations, six subsets, and 0.4 mm isotropic voxel size; corrections for attenuation, scatter, and dead-time were enabled. The data were then visualised and quantified using VivoQuant^© v.2.50 (InviCro, Boston, MA, USA) software. SPECT/CT imaging was performed on a NanoSPECT/CT Silver Upgrade scanner (Mediso; 4 heads, 4 × 9 1.0 mm multipinhole collimators) in helical scanning mode using energy windows centred around 93.20 ± 20% keV (primary), 184.60 ± 20% keV (secondary), and 300.00 ± 20% keV (tertiary). […] Images were coregistered and analysed using VivoQuant v2.50 (InviCro, Needham, MA, USA).

[6] = biological target: T1, human apo-transferrin (apo-Tf) (Homo sapiens, UniProt P02787); test: Binding to apo-transferrin by size exclusion chromatography (PD MidiTrap G-25); assay type: in vitro ADME; conditions: incubated with apo-Tf in the presence of bicarbonate, sampled over 48 h
T1 construct: purchased Sigma Aldrich
T1 sequence (P02787 20-698): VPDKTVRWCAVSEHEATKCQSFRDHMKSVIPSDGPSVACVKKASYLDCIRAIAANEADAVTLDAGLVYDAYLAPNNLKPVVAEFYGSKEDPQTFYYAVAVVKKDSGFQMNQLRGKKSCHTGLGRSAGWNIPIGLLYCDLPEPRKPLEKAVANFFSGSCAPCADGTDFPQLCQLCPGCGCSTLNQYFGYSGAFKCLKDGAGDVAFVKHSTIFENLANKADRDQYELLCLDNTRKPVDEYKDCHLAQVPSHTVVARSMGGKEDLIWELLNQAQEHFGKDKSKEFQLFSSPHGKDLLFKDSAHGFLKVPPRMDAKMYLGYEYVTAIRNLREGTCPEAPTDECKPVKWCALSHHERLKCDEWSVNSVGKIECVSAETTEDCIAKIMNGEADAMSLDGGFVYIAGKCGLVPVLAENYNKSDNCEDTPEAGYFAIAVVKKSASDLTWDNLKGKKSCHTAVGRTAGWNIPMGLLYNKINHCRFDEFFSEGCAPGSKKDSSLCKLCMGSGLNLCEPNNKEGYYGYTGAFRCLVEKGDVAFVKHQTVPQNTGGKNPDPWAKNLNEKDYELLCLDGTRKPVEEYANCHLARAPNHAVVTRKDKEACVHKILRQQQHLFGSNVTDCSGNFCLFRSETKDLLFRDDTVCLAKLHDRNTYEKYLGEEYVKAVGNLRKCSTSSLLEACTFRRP
Description: Solutions of human apo-transferrin (apo-Tf, 2 mg/mL) and human serum albumin (HSA, 50 mg/mL) (both purchased from Sigma Aldrich) were dissolved in aqueous NaHCO3 (5 mM, pH = 8) and PBS (pH = 7.4), respectively. An amount of 1 MBq of tracer-level [^68Ga]KP46 (13–20 µL) or [^68Ga]gallium acetate (20–25 µL) was added to 1.2 mL of the apo-Tf solution and to a similar apo-Tf-free NaHCO3 solution (control). Similarly, [^68Ga]KP46 and [^68Ga]gallium acetate solutions were added to 1.5 mL PBS containing HSA or HSA-free PBS (control). The samples were incubated for 60 min at 37 °C (pH = 7–7.5). From each mixture, 0.5 mL was loaded into PD MidiTrap G-25 size exclusion chromatography cartridges that were preconditioned with 8 mL of NaHCO3 (5 mM) (for apo-Tf binding) or PBS (for HSA binding). Fractions (0.5 mL) were collected and counted with a Wallac gamma counter. Protein absorbance at 280 nm was measured using a Nanodrop spectrophotometer. To investigate the speciation of the Ga–KP46 complex in the presence of apo-Tf at later time points (up to 48 h), the experiment was repeated with ^67Ga.

[7] = Octanol extraction of serum, urine and gut contents after oral radiolabelled KP46 (speciation); assay type: in vivo, mice; conditions: oral, tracer level (group E), 24 h
Description: Serum and urine from the “tracer level” group (E) were subjected to octanol extraction 24 h postadministration to determine the fraction of ^67Ga that may have survived in the form of [^67Ga]KP46 after absorption from the gut.
Oral [^68/67Ga]KP46: The protocol for oral administration experiments reported here was devised on the basis of pilot experiments described in Supplementary Materials (Figure S12). For short-term (up to 4 h) studies with ^68Ga, awake (nonanaesthetised, to avoid suppressive effects of anaesthesia on digestive tract activity) mice that had been fasted for up to 14 h were given [^68Ga]KP46 (5–13 MBq) (group C, “tracer”, n = 3) or [^68Ga]KP46 and KP46 (5–8.5 MBq) (group D, “bulk”, n = 3) by oral gavage. The dose given orally to group D animals, prepared as described above, was 0.4 μmol in 400 μL, molar activity ca. 25 MBq/μmol. The mice were fasted for three hours before being anaesthetised and PET/CT scanned dynamically for one hour (see below for scanning protocol). After scanning, mice in both groups were culled by neck dislocation while still anaesthetised four hours post-oral administration for organ harvesting and gamma counting. Samples of blood, urine and contents of stomach, small intestine and large intestine (the organs/tissue with measurable activity; tumours were not included as they were insufficiently radioactive) from the mice in group C were used for octanol extraction (shake-flask method) to separate water-soluble (released) and lipid-soluble (intact KP46) ^68Ga. Serum samples were prepared by placing blood samples in a serum separator tube (brand VS367954, Fisher Scientific Ltd., Loughborough, UK) and centrifuging at 3000 rpm for 10 min. Serum (200–300 µL) and urine samples (150–180 µL, taken from the excised bladders) were directly added to Eppendorf tubes containing a pre-equilibrated mixture of octanol (500 µL) and water (500 µL). The tubes were vortexed for two minutes on a Multi Vortex Mixer V-32 (Grant Bio). After separation of layers, a sample of 400 µL from each layer was transferred to fresh Eppendorf tubes and analysed with a gamma counter. Stomach content (72–77 mg), small intestine content (35–88 mg), and large intestine content (86–100 mg) samples from each mouse were analysed similarly by adding them directly to Eppendorf tubes containing a pre-equilibrated mixture of octanol (500 µL) and water (500 µL) before vortexing and centrifuging at 10,000 rpm for 10 min at 4 °C. From each layer, 430 µL was transferred to fresh Eppendorf tubes and analysed with a gamma counter; the solid residues were also counted. Tissues from mice in group D were used after radioactive decay for measurements of nonradioactive ^69Ga content.

[8] = single oral administration with bulk gallium chloride (100 nmol), after five days; cited from earlier work

[Ga+3].[O-]c1cccc2cccnc12.[O-]c1cccc2cccnc12.[O-]c1cccc2cccnc12 [KP46, tris(8-quinolinolato)gallium (III)]
logP(octanol/water) [1]: 2.33 ± 0.28
69Ga delivered to tumour by ICP-MS [2]: 0.17 ± 0.1 %ID/g
69Ga in large intestine by ICP-MS [2]: 23.7 ± 9.2 %ID/g
logP(octanol/water) [3]: 0.88
accumulation of gallium in liver [4]: 0.08 ± 0.04 %ID/g

[67Ga+3].[O-]c1cccc2cccnc12.[O-]c1cccc2cccnc12.[O-]c1cccc2cccnc12 [[^67Ga]KP46]
uptake in bone, ex vivo ([5]; bulk level (group F), 48 h): 2.55 ± 1.82 %ID/g
uptake in liver, ex vivo ([5]; bulk level (group F), 48 h): 1.34 ± 1.01 %ID/g
uptake in tumour, ex vivo ([5]; bulk level (group F), 48 h): 1.57 ± 0.48 %ID/g
activity in faeces, ex vivo ([5]; tracer level (group E), 24 h): 3.0 ± 2.9 %ID/g
binding of 67Ga to apo-Tf [6]: very minor binding
serum radioactivity extracted into octanol phase [7]: Less than 6%
urine activity extracted into octanol phase [7]: less than 3%

O=C([O-])CC(O)(CC(=O)[O-])C(=O)[O-].[67Ga+3] [[^67Ga]gallium citrate]
original measured activity remaining in the mice [8]: 0.3 ± 0.08%
